# Reference: publication PMC5290327, “SC83288 is a clinical development candidate for the treatment of severe malaria” (Nature Communications, 2017)
# Key:
# 5-HT2B (h) = target: T1, 5-HT2B (h) (Homo sapiens, UniProt P41595); assay: Radioligand binding; conditions: control compound
# T1 construct: Cerep (contract screening)
# Method: (§1) The study was carried out by Cerep (Celle l'Evescault, France). An in vitro pharmacological profiling panel was designed to detect potential high-risk clinical adverse drug reactions. The panel comprised of 54 targets.
# (§2) The specific ligand binding to the receptors was defined as the difference between the total binding and the non-specific binding determined in the presence of an excess of unlabelled ligand. Results were expressed as a per cent of control specific binding and as a per cent inhibition of control specific obtained in the presence of the test compounds. Results showing an inhibition (or stimulation) >50% were considered to represent significant effects of the test compounds. […] The IC50 values were determined by non-linear regression analysis of the competition curves generated with mean replicate values using Hill equation curve fitting. The inhibition constants (Ki) were calculated using the Cheng Prusoff equation.
# [1] = tested on: cytoplasmic free Ca2+ in P. falciparum HB3 trophozoites; assay: Ca2+ live imaging, Fluo-4; conditions: SC compounds 10 and 20 μM; CPA 10 μM
# [2] = target: Ca2+ channel (L, verapamil site); assay: Radioligand binding; conditions: control compound
# Method: as §1, §2
# P. chabaudi = assay: Rodent malaria model; assay type: in vivo; conditions: 10 mg kg-1 i.v. 1x4 days
# Plasmodium vinckei = assay: Rodent malaria model; assay type: in vivo; conditions: P. vinckei, 30 mg kg-1 i.p. 1x4 days
# Source text: The two SC compounds were also active in the Plasmodium vinckei rodent malaria model system.
# PK study = assay type: in vivo, rat; conditions: rat, plasma, po; rats
# Method: On the treatment day, all animals were weighed and the dosing volume was calculated for each individual animal according to its actual body weight. All animal were dosed once. Blood samples were taken at different time points and plasma was collected after centrifugation (10,000g, 10 min, 4 °C). Plasma samples were analysed by LC–MS/MS. […] All relevant observations were recorded. The PK studies in cynomolgus monkeys and beagle dogs were performed by the Laboratory of Pharmacology and Toxicology (LPT), Hamburg, and PK and toxicity studies in mice and rats were performed by the 4SC Discovery GmbH, Munich. PK parameters were obtained by a non-compartment analysis, using Kinetica 4.1 (Thermo Scientific).
# Plasmodium berghei = assay: Rodent malaria model; assay type: in vivo; conditions: for Outcome: P. berghei
# Method: This was the case for both an in vivo 4 day dosing regimen of 30 mg kg^−1 per day and an ex vivo one-cycle growth inhibition assay. […] Differential therapeutic efficacy in various rodent model systems is a well-established phenomenon and is typically associated with charged compounds, such as positively charged amidines and negatively charged phosphoric acid or carboxylic acid containing drugs. The phenomenon is explained based on selective uptake of charged compounds through parasite-induced channels, termed new permeation pathways, in the host cell plasma membrane and species-specific characteristics of the new permeation pathways.
# Solubility in water = conditions: water
# [3] = In vitro metabolism in liver microsomes; conditions: human microsome assay
# Permeability assay = assay type: in vitro ADME; conditions: human; CACO 2 cells, 10 μM, apical side, 2 h
# Method: The study was conducted by Cyprotex (Macclesfield, United Kingdom). CACO 2 cells (Sigma-Aldrich, catalogue: 86010202) were seeded on Millipore Millicell plates and formed a confluent monolayer over 20 days before the experiment. On day 20, the tested compounds at a final concentration of 10 μM were added to the apical side of the membrane. The transport of the compound across the monolayer was monitored over a 2 h period by liquid chromatography (LC)–MS/MS quantification. The permeability coefficient (Papp) was calculated from the following equation: [drawing 1] , where dQ/dt is the rate of permeation of the drug across the cells, C0 the donor compartment concentration at time zero and A the area of the cell monolayer. C0 was obtained from analysis of the dosing solution at the start of the experiment.
# HepG2 cells = assay: Cytotoxicity; conditions: 10 μM
# P. falciparum strain Dd2 = assay: Growth inhibition assay, asexual blood stages; assay type: cell-based, Plasmodium falciparum; conditions: Plasmodium falciparum
# TP (h) (TXA2/PGH2) = target: T2, TP (h) (TXA2/PGH2) (Homo sapiens, UniProt P21731); assay: Radioligand binding; conditions: control compound
# T2 construct: Cerep
# T2 sequence (P21731 1-343): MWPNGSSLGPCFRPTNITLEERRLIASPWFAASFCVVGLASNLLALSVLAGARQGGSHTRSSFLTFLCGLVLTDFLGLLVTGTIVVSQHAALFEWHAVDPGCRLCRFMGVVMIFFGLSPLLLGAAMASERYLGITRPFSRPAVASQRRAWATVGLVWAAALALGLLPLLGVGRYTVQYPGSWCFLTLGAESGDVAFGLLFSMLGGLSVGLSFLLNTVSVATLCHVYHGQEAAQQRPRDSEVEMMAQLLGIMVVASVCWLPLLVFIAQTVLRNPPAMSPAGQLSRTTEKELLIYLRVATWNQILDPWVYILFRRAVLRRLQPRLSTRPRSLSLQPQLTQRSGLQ
# [4] = tested on: Dd2 P. falciparum parasites; assay: In vitro parasite reduction ratio assay (Sanz protocol); assay type: cell-based, Plasmodium falciparum
# Dd2 SC83288 resistant = assay: Growth inhibition assay; assay type: cell-based; conditions: Plasmodium falciparum
# Method: (§3) To identify the mode of action/mechanism of resistance of SC81458 and […], a chemogenomic approach was used, whereby resistant parasites were obtained by in vitro drug pressure selection and subjected to whole-genome sequencing to identify the genetic basis of resistance. Three independent selections of Dd2 parasites at an initial population of 10^10 infected red blood cells (performed in 150 ml flasks, 2% haematocrit) were subjected to SC81458 or SC83288 at a starting concentration of 50 nM. […] Drug resistance was confirmed by measuring the IC50s, after two consecutive cycles in absence of the drug, using a SYBRGreen growth inhibition assay as previously described. After up to 200 days of drug pressure, the drug-resistant lines were clones by limiting dilution for single-cell isolation and genomic DNA was extracted using the DNeasy Blood&Tissue kit (Qiagen, USA) and subjected to ultra-deep sequencing.
# Dd2 SC81458 resistant = assay: Growth inhibition assay; assay type: cell-based; conditions: Plasmodium falciparum
# Method: as §3
# a1 (non-selective) = assay: Radioligand binding; conditions: control compound
# Method: as §1, §2
# Na+ channel (site 2) = assay: Radioligand binding; conditions: control compound
# a2 (non-selective) = assay: Radioligand binding; conditions: control compound
# Method: as §1, §2
# CXCR2 (IL-8B) (h) = target: T3, CXCR2 (IL-8B) (h) (Homo sapiens, UniProt P25025); assay: Radioligand binding; conditions: control compound
# T3 construct: Cerep
# T3 sequence (P25025 1-360): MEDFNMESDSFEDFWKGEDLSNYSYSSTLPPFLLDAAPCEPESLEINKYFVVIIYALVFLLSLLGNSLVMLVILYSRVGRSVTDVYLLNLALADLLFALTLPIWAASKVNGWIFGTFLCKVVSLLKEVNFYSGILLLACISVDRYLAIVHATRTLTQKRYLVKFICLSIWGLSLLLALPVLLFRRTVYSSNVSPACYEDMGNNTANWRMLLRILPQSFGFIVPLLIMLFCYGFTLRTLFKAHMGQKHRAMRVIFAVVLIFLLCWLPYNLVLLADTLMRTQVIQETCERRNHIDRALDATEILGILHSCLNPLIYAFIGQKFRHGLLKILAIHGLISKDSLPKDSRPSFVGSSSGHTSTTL
# CCR1 (h) = target: T4, CCR1 (h) (Homo sapiens, UniProt P32246); assay: Radioligand binding; conditions: control compound
# T4 construct: Cerep
# T4 sequence (P32246 1-355): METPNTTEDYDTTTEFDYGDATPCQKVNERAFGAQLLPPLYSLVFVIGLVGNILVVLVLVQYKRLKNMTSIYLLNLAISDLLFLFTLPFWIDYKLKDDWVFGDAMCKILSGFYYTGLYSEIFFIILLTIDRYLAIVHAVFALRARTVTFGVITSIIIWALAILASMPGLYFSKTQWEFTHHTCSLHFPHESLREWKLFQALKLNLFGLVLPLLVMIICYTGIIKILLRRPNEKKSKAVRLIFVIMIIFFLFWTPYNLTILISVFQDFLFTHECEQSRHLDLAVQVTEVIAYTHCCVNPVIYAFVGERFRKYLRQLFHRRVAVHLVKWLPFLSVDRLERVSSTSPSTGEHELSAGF
# sst (non-selective) = assay: Radioligand binding; conditions: control compound
# Method: as §1, §2
# [5] = read-out: Control specific binding IC50
# [6] = read-out: Control specific binding Ki
# T1 sequence (P41595 whole entry): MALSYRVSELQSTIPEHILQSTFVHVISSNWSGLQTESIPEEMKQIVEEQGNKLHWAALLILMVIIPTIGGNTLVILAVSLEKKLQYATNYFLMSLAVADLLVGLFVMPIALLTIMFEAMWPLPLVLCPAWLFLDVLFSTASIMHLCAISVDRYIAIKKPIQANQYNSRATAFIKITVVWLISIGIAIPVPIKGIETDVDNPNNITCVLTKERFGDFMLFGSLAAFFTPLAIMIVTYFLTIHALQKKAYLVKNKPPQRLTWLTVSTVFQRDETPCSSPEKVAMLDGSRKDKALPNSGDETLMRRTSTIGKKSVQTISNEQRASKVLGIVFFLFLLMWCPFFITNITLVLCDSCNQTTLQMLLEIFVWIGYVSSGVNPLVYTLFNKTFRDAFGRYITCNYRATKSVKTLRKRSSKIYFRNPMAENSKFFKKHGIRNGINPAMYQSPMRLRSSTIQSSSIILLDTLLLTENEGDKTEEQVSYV
molecule,measurement,setting,value
"COc1cc(CC(C)N)c(OC)cc1I (racemic) [(±)DOI, reference compound]",IC50,5-HT2B (h); [5],5.1 nM
same,Ki,5-HT2B (h); [6],4.6 nM
"CC(=O)C1=C(O)[C@@H]2[C@H]3c4c[nH]c5cccc(c45)C[C@H]3C(C)(C)N2C1=O [CPA, cyclopiazonic acid, reference compound]",effect on cytoplasmic free Ca^2+,[1],induced a strong Ca^2+ responses
"COc1ccc(CCN(C)CCCC(C#N)(c2cc(OC)c(OC)c(OC)c2)C(C)C)cc1OC (stereo not shown) [D 600, reference compound]",IC50,[2]; [5],67 nM
same,Ki,[2]; [6],34 nM
N=C(N)c1cccc(NC(=O)Nc2ccc(S(=O)(=O)NCc3ccc(S(N)(=O)=O)cc3)cc2)c1 [SC09064],Outcome,P. chabaudi,inactive
same,Outcome,Plasmodium vinckei,inactive
same,bioavailability,PK study,3%
same,Outcome,Plasmodium berghei; 10 mg kg-1 i.v. 1x4 days,inactive
same,Outcome,Plasmodium berghei; 50 mg kg-1 i.p. 1x4 days,inactive
same,activity against P. berghei,Plasmodium berghei; in vivo,no activity
same,solubility,Solubility in water,316 µg/mL
same,"metabolic stability, residual after 1 h of incubation",[3],65%
same,"Papp at 2 h, 10 μM",Permeability assay,0.28 ×10⁻⁶ cm/s
same,Ames test,Ames test,negative
same,adverse effects on HepG2 cells,HepG2 cells,no adverse effects
same,IC50,"P. falciparum strain Dd2; DD2, 72 h, Dd2, standard proliferation assay, 72 h exposure",10 ± 3 nM
"CCCCC[C@H](O)/C=C/[C@H]1[C@@H]2CO[C@@H](C2)[C@@H]1C/C=C\CCCC(=O)O [U 44069, reference compound]",IC50,TP (h) (TXA2/PGH2); [5],14 nM
same,Ki,TP (h) (TXA2/PGH2); [6],6.2 nM
"O=C1C(O)=C([C@H]2CC[C@H](c3ccc(Cl)cc3)CC2)C(=O)c2ccccc21 [atovaquone, reference compound]",In vitro PCT99.9%,"[4]; 10 times IC50, Dd2",89 ± 7 h
same,In vitro lag phase,"[4]; 10 times IC50, Dd2",> 24 h
same,In vitro logPRR,"[4]; 10 times IC50, Dd2, over 48 h",2.1±0.4
same,IC50,Dd2 SC83288 resistant,0.8 ± 0.1 nM
same,IC50,Dd2 SC81458 resistant,0.3 ± 0.1 nM
same,IC50,"P. falciparum strain Dd2; DD2, Dd2, Supplementary Table 11",0.6 ± 0.1 nM
"COc1cc2nc(N3CCN(C(=O)c4ccco4)CC3)nc(N)c2cc1OC [prazosin, reference compound]",IC50,a1 (non-selective); [5],0.82 nM
same,Ki,a1 (non-selective); [6],0.22 nM
"COc1ccc(C(=O)O[C@H]2CC[C@@]3(C)[C@@H]4CC[C@H]5[C@]6(O)C[C@H](O)[C@@]7(O)[C@@H](CN8C[C@@H](C)CC[C@H]8[C@@]7(C)O)[C@]6(O)C[C@@]53O[C@]24O)cc1OC [veratridine, reference compound]",IC50,Na+ channel (site 2); [5],10000 nM
same,Ki,Na+ channel (site 2); [6],9000 nM
"COC(=O)[C@@H]1[C@H]2C[C@H]3c4[nH]c5ccccc5c4CCN3C[C@@H]2CC[C@@H]1O [yohimbine, reference compound]",IC50,a2 (non-selective); [5],69 nM
same,Ki,a2 (non-selective); [6],30 nM
IL-8: control compound of the binding panel [reference compound],IC50,CXCR2 (IL-8B) (h); [5],0.063 nM
same,Ki,CXCR2 (IL-8B) (h); [6],0.029 nM
MIP-1a: control compound of the binding panel [reference compound],IC50,CCR1 (h); [5],0.06 nM
same,Ki,CCR1 (h); [6],0.03 nM
somatostatin-14: control compound of the binding panel [reference compound],IC50,sst (non-selective); [5],0.15 nM
same,Ki,sst (non-selective); [6],0.092 nM
